Data on 27 molecules can be found in the Kinase Knowledgebase extract (Sharma et al. 2016).

The target of one assay is PIK3CD (Human) (UniProt O00329). The assay is described as follows: Assessment of PIK3CD Kinase Activity.
The target in the next assay is PIK3CG (human) (UniProt P48736). The assay is described as follows: Assessment of PIK3CG Kinase Activity.
The target in another assay is PIK3CB (Human) (UniProt P42338). The assay is described as follows: Assessment of PIK3CB Kinase Activity.
Sequence of PIK3CB (Human) (P42338 whole entry, looked up): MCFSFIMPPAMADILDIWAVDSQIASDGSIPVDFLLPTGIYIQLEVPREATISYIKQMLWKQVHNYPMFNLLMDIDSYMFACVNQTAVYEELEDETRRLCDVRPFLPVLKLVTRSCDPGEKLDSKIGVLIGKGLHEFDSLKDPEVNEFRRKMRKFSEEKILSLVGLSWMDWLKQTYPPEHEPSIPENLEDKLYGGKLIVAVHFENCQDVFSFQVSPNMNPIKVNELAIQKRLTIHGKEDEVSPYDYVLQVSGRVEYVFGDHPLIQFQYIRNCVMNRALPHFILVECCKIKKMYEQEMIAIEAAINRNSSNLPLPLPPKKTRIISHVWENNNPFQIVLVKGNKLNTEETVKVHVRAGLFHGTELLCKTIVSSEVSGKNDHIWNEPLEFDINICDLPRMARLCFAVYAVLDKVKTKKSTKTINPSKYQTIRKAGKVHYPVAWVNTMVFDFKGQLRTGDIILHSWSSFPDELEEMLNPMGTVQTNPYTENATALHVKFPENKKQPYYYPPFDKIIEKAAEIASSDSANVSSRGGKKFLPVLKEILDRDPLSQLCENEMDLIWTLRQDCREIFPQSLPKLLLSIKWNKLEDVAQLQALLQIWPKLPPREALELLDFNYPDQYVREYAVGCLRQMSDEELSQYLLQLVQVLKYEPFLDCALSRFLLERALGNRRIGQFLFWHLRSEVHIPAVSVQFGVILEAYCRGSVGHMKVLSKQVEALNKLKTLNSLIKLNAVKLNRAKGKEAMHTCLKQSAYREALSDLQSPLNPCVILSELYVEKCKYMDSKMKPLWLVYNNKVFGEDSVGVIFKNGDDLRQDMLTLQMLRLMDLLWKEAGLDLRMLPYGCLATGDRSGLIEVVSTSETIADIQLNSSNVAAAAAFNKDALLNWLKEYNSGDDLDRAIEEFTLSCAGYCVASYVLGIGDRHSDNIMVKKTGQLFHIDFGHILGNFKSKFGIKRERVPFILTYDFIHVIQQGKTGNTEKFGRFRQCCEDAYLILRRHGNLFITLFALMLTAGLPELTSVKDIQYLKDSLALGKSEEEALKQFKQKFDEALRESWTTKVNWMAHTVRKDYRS

Sequence of PIK3CG (human) (P48736 whole entry, looked up): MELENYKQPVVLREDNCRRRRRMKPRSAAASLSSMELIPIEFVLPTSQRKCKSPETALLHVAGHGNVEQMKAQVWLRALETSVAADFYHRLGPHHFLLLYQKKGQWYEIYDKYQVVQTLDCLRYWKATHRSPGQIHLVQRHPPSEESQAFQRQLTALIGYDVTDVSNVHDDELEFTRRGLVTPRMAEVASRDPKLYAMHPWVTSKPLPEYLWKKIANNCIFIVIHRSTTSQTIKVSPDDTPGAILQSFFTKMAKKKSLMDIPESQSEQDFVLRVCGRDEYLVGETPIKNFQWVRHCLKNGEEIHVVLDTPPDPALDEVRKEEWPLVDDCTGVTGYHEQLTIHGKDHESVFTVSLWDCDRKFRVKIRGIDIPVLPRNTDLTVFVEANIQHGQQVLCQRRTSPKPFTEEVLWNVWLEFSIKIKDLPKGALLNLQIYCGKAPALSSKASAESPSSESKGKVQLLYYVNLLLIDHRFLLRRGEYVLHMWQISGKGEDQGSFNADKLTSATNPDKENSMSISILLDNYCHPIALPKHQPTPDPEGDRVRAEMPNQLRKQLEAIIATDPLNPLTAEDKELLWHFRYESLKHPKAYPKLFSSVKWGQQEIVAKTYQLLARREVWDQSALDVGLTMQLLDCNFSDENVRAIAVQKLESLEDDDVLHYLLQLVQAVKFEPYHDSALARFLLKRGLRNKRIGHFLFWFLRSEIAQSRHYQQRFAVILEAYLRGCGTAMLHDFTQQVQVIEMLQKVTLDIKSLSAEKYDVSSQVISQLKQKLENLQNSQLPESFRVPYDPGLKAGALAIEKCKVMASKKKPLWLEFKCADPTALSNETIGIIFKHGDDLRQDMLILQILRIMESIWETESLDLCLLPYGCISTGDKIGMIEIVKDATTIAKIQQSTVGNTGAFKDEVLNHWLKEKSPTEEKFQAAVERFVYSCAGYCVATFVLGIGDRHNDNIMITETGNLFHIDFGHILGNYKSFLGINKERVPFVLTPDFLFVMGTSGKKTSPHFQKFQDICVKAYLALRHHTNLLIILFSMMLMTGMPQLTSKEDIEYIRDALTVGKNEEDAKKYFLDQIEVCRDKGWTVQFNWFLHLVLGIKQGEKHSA
Sequence of PIK3CD (Human) (O00329 whole entry, looked up): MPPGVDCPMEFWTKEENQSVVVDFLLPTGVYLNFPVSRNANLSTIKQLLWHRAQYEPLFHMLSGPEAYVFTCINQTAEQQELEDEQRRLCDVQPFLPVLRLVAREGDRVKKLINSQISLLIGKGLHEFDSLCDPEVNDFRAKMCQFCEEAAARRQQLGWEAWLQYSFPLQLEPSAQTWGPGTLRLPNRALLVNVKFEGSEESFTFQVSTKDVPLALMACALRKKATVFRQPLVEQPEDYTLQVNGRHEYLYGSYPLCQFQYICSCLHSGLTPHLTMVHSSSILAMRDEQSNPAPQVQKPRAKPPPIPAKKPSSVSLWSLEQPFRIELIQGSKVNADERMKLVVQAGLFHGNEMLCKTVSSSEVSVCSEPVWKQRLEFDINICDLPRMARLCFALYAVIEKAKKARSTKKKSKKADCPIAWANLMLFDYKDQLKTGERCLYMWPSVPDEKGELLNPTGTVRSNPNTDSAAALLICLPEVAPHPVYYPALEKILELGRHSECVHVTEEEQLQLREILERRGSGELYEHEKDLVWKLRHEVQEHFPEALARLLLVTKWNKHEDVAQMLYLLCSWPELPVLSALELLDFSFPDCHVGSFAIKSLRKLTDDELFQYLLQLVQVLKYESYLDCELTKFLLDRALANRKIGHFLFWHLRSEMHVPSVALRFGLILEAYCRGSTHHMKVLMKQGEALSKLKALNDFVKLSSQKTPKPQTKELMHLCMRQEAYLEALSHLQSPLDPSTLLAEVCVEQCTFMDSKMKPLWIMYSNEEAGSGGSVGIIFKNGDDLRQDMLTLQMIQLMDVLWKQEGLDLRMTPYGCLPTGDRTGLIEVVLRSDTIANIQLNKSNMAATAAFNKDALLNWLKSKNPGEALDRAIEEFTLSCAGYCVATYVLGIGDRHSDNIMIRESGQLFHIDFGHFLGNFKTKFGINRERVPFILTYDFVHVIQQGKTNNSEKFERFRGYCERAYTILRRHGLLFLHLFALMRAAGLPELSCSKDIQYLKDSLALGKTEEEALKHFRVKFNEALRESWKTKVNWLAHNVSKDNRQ

The term IC50 denotes the concentration that gives 50% inhibition. Take `C[C@H](Nc1ccnc2ccnn12)c1cc2cccc(-c3cnn(C)c3)c2c(=O)n1-c1cccc(F)c1`: the IC50 was < 100 nM at PIK3CD (Human), 100 to 1000 nM against PIK3CG (human) and > 10000 nM at PIK3CB (Human).
Regarding `C[C@H](Nc1ccnc2ccnn12)c1cc2cccc(-c3cnn(C)c3)c2c(=O)n1-c1ccccc1`, the half-inhibitory concentration (IC50) on PIK3CD (Human) and at PIK3CG (human) was < 100 nM each time.
In the case of `C[C@H](Nc1ncnc2cccnc12)c1cc2ccc(F)cc2c(=O)n1-c1ccccc1`, the IC50 against PIK3CD (Human) and at PIK3CG (human) was < 100 nM in each case.
Turning to `C[C@H](Nc1ncnn2ccnc12)c1cc2cccc(Cl)c2c(=O)n1-c1ccccc1`, the IC50 is < 100 nM on PIK3CD (Human), < 100 nM against PIK3CG (human) and 100 to 1000 nM at PIK3CB (Human).
For the molecule `C[C@H](Nc1ccnc2ccnn12)c1cc2cccc(Cl)c2c(=O)n1-c1cccc(F)c1`, the IC50 on PIK3CD (Human) and against PIK3CG (human) was < 100 nM each time.
On to `C[C@H](Nc1ccnn2ccnc12)c1cc2cccc(C(F)(F)F)c2c(=O)n1-c1cccc(F)c1`, for which the IC50 against PIK3CD (Human) and against PIK3CG (human) was < 100 nM in each case.
Take `CNc1nc(N[C@@H](C)c2cc3cccc(Cl)c3c(=O)n2-c2ccccc2)c2ncccc2n1`: the IC50 at PIK3CD (Human) and on PIK3CG (human) was < 100 nM each time.
As for `C[C@H](Nc1ccnc2cccnc12)c1cc2cccc(Cl)c2c(=O)n1-c1ccccc1`, the IC50 at PIK3CD (Human) is < 100 nM; at PIK3CG (human), < 100 nM; on PIK3CB (Human) it was 100 to 1000 nM.
Turning to `C[C@H](Nc1nc(N)nc2cccnc12)c1cc2cccc(-c3cnn(C)c3)c2c(=O)n1-c1ccccc1`, the figures for the IC50 on PIK3CD (Human), against PIK3CG (human) and on PIK3CB (Human) were < 100 nM, < 100 nM and > 10000 nM, respectively.
As to `C[C@H](Nc1nc(N)nc2cccnc12)c1cc2cccc(-c3ccnnc3)c2c(=O)n1-c1cccc(F)c1`, the IC50 is < 100 nM at PIK3CD (Human), < 100 nM at PIK3CG (human) and > 10000 nM against PIK3CB (Human).
`C[C@H](Nc1ncnc2cccnc12)c1cc2cccc(-c3cnn(C)c3)c2c(=O)n1C1CC1`: the IC50 at PIK3CD (Human) and on PIK3CG (human) was < 100 nM each time.
`COc1ncc(-c2cccc3cc([C@H](C)Nc4ccnn5ccnc45)n(-c4ccccc4)c(=O)c23)cn1`: the IC50 against PIK3CD (Human) is < 100 nM; against PIK3CG (human), 100 to 1000 nM; against PIK3CB (Human), > 10000 nM.
On to `C[C@H](Nc1nc(N)nc2cccnc12)c1cc2cccc(C(F)(F)F)c2c(=O)n1-c1ccccc1`, for which the IC50 is < 100 nM at PIK3CD (Human), < 100 nM against PIK3CG (human) and 100 to 1000 nM against PIK3CB (Human).
Turning to `C[C@H](Nc1ccnn2ccnc12)c1cc2cccc(-c3cnn(C)c3)c2c(=O)n1C1CC1`, the IC50 against PIK3CD (Human) is < 100 nM; on PIK3CG (human) it was 100 to 1000 nM.
For the molecule `COc1ncc(-c2cccc3cc([C@H](C)Nc4ncnc5cccnc45)n(-c4cccc(F)c4)c(=O)c23)cn1`, the figures for the IC50 against PIK3CD (Human), against PIK3CG (human) and against PIK3CB (Human) were < 100 nM, 100 to 1000 nM and > 10000 nM, respectively.
Consider `C[C@H](Nc1ncnc2cccnc12)c1cc2cc(F)ccc2c(=O)n1-c1ccccc1`, for which the IC50 against PIK3CD (Human) was 100 to 1000 nM; against PIK3CB (Human), > 10000 nM.
`C[C@H](Nc1ccnc2ccnn12)c1cc2scc(Cl)c2c(=O)n1-c1ccccc1`: the concentration for half-maximal inhibition (IC50) against PIK3CD (Human) is < 100 nM; against PIK3CG (human), < 100 nM; at PIK3CB (Human) it was 100 to 1000 nM.
With `C[C@H](Nc1ccnc2ccnn12)c1cc2cccc(C(F)(F)F)c2c(=O)n1-c1ccccc1`, the IC50 is < 100 nM on PIK3CD (Human), < 100 nM at PIK3CG (human) and 100 to 1000 nM against PIK3CB (Human).
Turning to `C[C@H](Nc1ccnn2ccnc12)c1cc2cccc(C(F)(F)F)c2c(=O)n1-c1ccccc1`, the IC50 was < 100 nM against PIK3CD (Human), < 100 nM at PIK3CG (human) and 100 to 1000 nM against PIK3CB (Human).
Regarding `C[C@H](Nc1ncnn2ccnc12)c1cc2cccc(Cl)c2c(=O)n1-c1cccc(F)c1`, the IC50 against PIK3CD (Human) and on PIK3CG (human) was < 100 nM each time.
Consider `C[C@H](Nc1ccnc2ccnn12)c1cc2cccc(Cl)c2c(=O)n1-c1ccccc1`, for which the IC50 at PIK3CD (Human) is < 100 nM; against PIK3CG (human) it was < 100 nM; at PIK3CB (Human), 100 to 1000 nM.
In the case of `C[C@H](Nc1ncnc2cccnc12)c1cc2cccc(Cl)c2c(=O)n1-c1ccccc1`, the IC50 at PIK3CD (Human) was < 100 nM; against PIK3CG (human), < 100 nM; at PIK3CB (Human), 100 to 1000 nM.
As to `C[C@H](Nc1nc(N)nc2cccnc12)c1nc2cccc(-c3ccnnc3)c2c(=O)n1-c1ccccc1`, the IC50 is < 100 nM at PIK3CD (Human), < 100 nM at PIK3CG (human) and > 10000 nM on PIK3CB (Human).
Regarding `C[C@H](Nc1nc(N)ncc1C#N)c1cc2cccc(C(F)(F)F)c2c(=O)n1-c1cccc(F)c1`, the half-maximal inhibitory concentration (IC50) against PIK3CD (Human) is < 100 nM; on PIK3CG (human), < 100 nM; on PIK3CB (Human), 100 to 1000 nM.
Regarding `C[C@H](Nc1nc(N)nc2scnc12)c1cc2cccc(C(F)(F)F)c2c(=O)n1-c1ccccc1`, the IC50 against PIK3CD (Human) and at PIK3CG (human) was < 100 nM throughout.
Take `C[C@H](Nc1nc(N)nc2cccnc12)c1cc2cccc(-c3ccnnc3)c2c(=O)n1-c1ccccc1`: the IC50 at PIK3CD (Human) and on PIK3CG (human) was < 100 nM each time.
Consider `C[C@H](Nc1ncnc2[nH]cnc12)c1cc2cccc(C(F)(F)F)c2c(=O)n1-c1ccccc1`, for which the concentration for half-maximal inhibition (IC50) was < 100 nM against PIK3CD (Human), < 100 nM against PIK3CG (human) and 100 to 1000 nM against PIK3CB (Human).
